Assay results reported in ChEMBL document CHEMBL3352622, “Folded structure and insertion depth of the frog-skin antimicrobial Peptide esculentin-1b(1-18) in the presence of differently charged membrane-mimicking micelles” (J Nat Prod, 2014).
Calls of active or inactive are those of the source. No cut-off for these calls is given here. Where a SMILES comes first, the peptide text is derived from it.

Test system: Human alphaherpesvirus 1
Assay: Antiviral activity against HSV-1 assessed as reduction in infectivity in African green monkey Vero cells after 2 hrs by virus yield reduction assay
Type: functional, organism-based

## CC[C@H](C)[C@H](NC(=O)CN)C(=O)N[C@@H](Cc1ccccc1)C(=O)N[C@@H](CO)C(=O)N[C@@H](CCCCN)C(=O)N[C@@H](CC(C)C)C(=O)N[C@@H](C)C(=O)NCC(=O)N[C@@H](CCCCN)C(=O)N[C@@H](CCCCN)C(=O)N[C@@H](CC(C)C)C(=O)N[C@@H](CCCCN)C(=O)N[C@@H](CC(N)=O)C(=O)N[C@@H](CC(C)C)C(=O)N[C@@H](CC(C)C)C(=O)N[C@H](C(=O)N[C@@H](CO)C(=O)NCC(N)=O)[C@@H](C)CC (H-GIFSKLAGKKLKNLLISG-NH2)
  Activity: inactive
